Data as given in patent US6780867B2, “Thienopyrimidines” (Merck Patent GmbH, priority 2000, dated 2004).
Counter-ions that a name gives are not always drawn.

melting point [°C] | Structure (SMILES)
136 to 137 | COc1ccc(CNc2nc(COCC(=O)O)nc3sc4c(c23)CCCC4)cc1Cl (as salt: salt) [Example 6, [4-(3-chloro-4-methoxybenzylamino)-5,6,7,8-tetrahydrobenzo[4,5]thieno-[2,3-d]pyrimidin-2-ylmethoxy]acetic acid]
158 to 160 | CCOC(=O)CSCc1nc(NCc2ccc(OC)c(Cl)c2)c2c3c(sc2n1)CCCC3 [Example 5, ethyl [4-(3-chloro-4-methoxybenzylamino)-5,6,7,8-tetrahydrobenzo[4,5]thieno-[2,3-d]pyrimidin-2-ylmethylsulfanyl]acetate]
